Measured values taken from a melting point compilation (Tetko et al.; mined from patent text by program, amines drawn as free bases though some values may be those of a salt).

Compared with `Cc1cccc(C(=NO)c2ccc(Cl)cc2)c1O`, `CCN(c1ccc(C(=O)Nc2cn3cc(Cl)ccc3n2)cc1)S(C)(=O)=O` is higher in melting point: 178 °C for the first, 245 to 247 °C for the second.

Compared with `O=[N+]([O-])c1cc2ccc(C(Cl)(Cl)Cl)nc2c2nc(C(Cl)(Cl)Cl)ccc12`, `Cc1ccc(S(=O)(=O)c2c(N)c3nccn3c3nccnc23)cc1` is higher in melting point: 228 to 231 °C for the first, 294 to 295 °C for the second.

Compared with `CC(=O)SCCC1(C)C(=O)N2CCCC(C(=O)OC(C)(C)C)N2C1=O` (stereo unspecified), `CC(C)(C)OC(=O)N1CCc2cccc([N+](=O)[O-])c2CC1` is higher in melting point: 67 to 70 °C for the first, 85 to 88 °C for the second.

Compared with `CN(C)C(=O)N[C@H]1CC[C@H](CCN2CCN(c3cccc(Cl)c3Cl)CC2)CC1`, `O=C(C[C@@H]1COCCO1)N[C@H]1CC[C@H](CCN2CCN(c3nccc4c3CCO4)CC2)CC1` is lower in melting point: 212 to 214 °C for the first, 192 °C for the second.

First: Cc1cc(O)c(S(=O)(=O)CCC(C)C)c(=O)o1
Second: Cc1ccc2c(C(=O)O)cn(C(C)C)c2c1
The melting point of the first is lower: 101 to 102 °C for the first, 185 to 186 °C for the second.

First: Cc1oc(-c2ccccc2)nc1COc1ccc(COc2cccc(CCC(=O)O)c2)cc1
Second: O=C(O)CCOc1ccc(CNC(=O)C2Cc3ccccc3N2S(=O)(=O)c2ccc(-c3cccc(C(F)(F)F)c3)cc2)cc1 (stereo unspecified)
The melting point of the first is higher: 157 to 158 °C for the first, 72 °C for the second.

First: ON=Cc1ccc(Cl)c(Cl)c1OCc1ccccc1
Second: COc1cccc2[nH]c(C(=O)OCc3ccccc3)cc12
The melting point of the first is lower: 64 to 69 °C for the first, 162 to 164 °C for the second.

First: N#Cc1nn(-c2c(Cl)cc(C(F)(F)F)cc2Cl)c(NCc2cnccn2)c1S(=O)C(F)(F)F (stereo unspecified)
Second: C[C@H](Nc1c(-c2c(F)cc(F)cc2F)c(Br)nc2ncnn12)C(F)(F)F
The melting point of the first is higher: 169 °C for the first, 95 to 97 °C for the second.

Compared with `CC(C)C(O)(C=Cc1ccc([N+](=O)[O-])cc1)CC(=O)OCc1ccccc1` (racemic), `O=C(O)CCCCC=Cc1cccc(Cc2ccccc2)c1` is higher in melting point: 64 to 65 °C for the first, 68 °C for the second.

First: COc1ccc2onc(CC(N)=NO)c2c1
Second: COc1ccc(-c2cn(O)c(=S)[nH]2)cc1
The melting point of the first is higher: 180 to 183 °C for the first, 160 °C for the second.

First: OC(CCl)CN(CC(O)CCl)c1ccccc1 (stereo unspecified)
Second: CC(C)(C)OC(=O)NOCC(O)c1ccccc1 (stereo unspecified)
The melting point of the first is lower: 60 °C for the first, 97 to 99 °C for the second.

First: O=C1CCN(c2ccc(S(=O)(=O)NCc3ccccc3)cc2)CC1
Second: COC(=O)COc1ccc(F)c2c1c1c(n2Cc2ccccc2)CCCC1C(N)=O (stereo unspecified)
The melting point of the first is lower: 136 to 140 °C for the first, 183 to 185 °C for the second.

First: O=CNC1=NN(c2cccc(F)c2)C(c2ccc(Cl)cc2)C1 (stereo unspecified)
Second: CN1C(=O)N(c2ccc(Cl)cc2)S(=O)(=O)c2ccc(OCC(=O)O)cc21
The melting point of the first is lower: 128 to 130 °C for the first, 228 to 230 °C for the second.

First: CCCN(CCCc1c[nH]c2ccc(F)cc12)C1COc2c(F)ccc(C(=O)NC)c2C1 (stereo unspecified)
Second: CN(CC(=O)O)CC(=O)Nc1cc(Cc2n[nH]c(=O)c3ccccc23)ccc1F
The melting point of the first is lower: 123 °C for the first, 194 to 198 °C for the second.

First: Cc1[nH]c2ccc(Br)cc2c1-c1ccncc1
Second: COc1cccc2c(Nc3ccccc3C)nccc12
The melting point of the first is higher: 248 °C for the first, 111 to 112 °C for the second.

First: CC1(C)CC(=O)C(=C(O)COc2ccc(Cl)cc2Cl)C(=O)C1
Second: COc1cccc(CC(=O)O)c1OCc1cc(OC(C)C)nn1Cc1ccc(Cl)cc1Cl
The melting point of the first is higher: 170 to 175 °C for the first, 127 to 128 °C for the second.

First: CCN(CC)C(=O)c1sc(Cl)nc1C(F)(F)F
Second: CCOC(=O)C1=Cc2cc(Cl)cc(C)c2NC1C(F)(F)F (stereo unspecified)
The melting point of the first is lower: 40 to 41 °C for the first, 154 to 155 °C for the second.

First: COc1ccc(Cn2nccc2-c2nn(-c3cccc(C(F)(F)F)c3)ccc2=O)cc1
Second: CN1C(=O)C(NC(=O)Oc2ccc([N+](=O)[O-])cc2)N=C(c2ccccc2F)c2ccccc21 (stereo unspecified)
The melting point of the first is lower: 159 to 161 °C for the first, 202 to 204 °C for the second.

Compared with `Cc1cc(CC2SCNC2=O)cc(C(C)(C)C)c1O` (stereo unspecified), `CCOC(=O)CN1C(=O)COc2cc(F)c([N+](=O)[O-])cc21` is higher in melting point: 64 to 68 °C for the first, 79 to 81 °C for the second.

First: COc1ccnc(C(C)S(=O)c2nc3cc(OC(F)(F)C(F)F)ccc3[nH]2)c1 (stereo unspecified)
Second: COc1ccc(C(=O)Nc2ccc(C(C)(C)CNC(=O)c3nc4ccc(F)cc4[nH]3)cc2)cc1OC
The melting point of the first is lower: 156 to 157 °C for the first, 222 to 224 °C for the second.

Compared with `CC(C)(C)NCc1ccc(COc2cccc3c2CN(C2CCC(=O)NC2=O)C3=O)cc1` (stereo unspecified), `C=CCOc1cccc2c1C(=O)N(C(C)(C#N)C(C)C)C2=O` (stereo unspecified) is lower in melting point: 194 to 196 °C for the first, 54 to 58 °C for the second.

First: Cc1cccc(C(=O)Cc2ccnc(N)c2)c1
Second: CCOC(=O)c1ccc(-n2ccnc2)cc1
The melting point of the first is higher: 119 to 120 °C for the first, 100 °C for the second.

First: O=C(c1c[nH]c2cc(OCc3ccc(F)cc3)ccc12)C1CSC(c2cccnc2)N1 (stereo unspecified)
Second: O[C@H](COc1cccc2[nH]ccc12)CN1CC=C(c2c[nH]c3cc(Cl)ccc23)CC1
The melting point of the first is lower: 185 to 186 °C for the first, 200 to 202 °C for the second.

First: Cc1ccc(C(O)(c2ccc3c(c2)c(-c2cccc(Cl)c2)nc2nnnn23)c2cncn2C)cc1 (stereo unspecified)
Second: COc1ccc(-c2c(NC(=O)Nc3ccc(F)cc3F)c(=O)n(C)c3ccc(C)cc23)cc1OC
The melting point of the first is lower: 165 °C for the first, 231 to 233 °C for the second.

First: Cn1nc(Cc2ccc(O)c(Cl)c2Cl)c(Cl)c1OC(F)F
Second: COC(=O)c1c(Cl)cc(Cl)cc1NC(=O)CSc1ccccc1Cl
The melting point of the first is higher: 127 to 128 °C for the first, 98 to 99 °C for the second.

First: CCOC(=O)c1ccc(-c2ccc(-c3ccc(O)cc3)c(-c3ccc4c(c3)C(C)(C)CCC4(C)C)c2)cc1
Second: Cc1ccc(CC(CC(=O)Oc2ccc([N+](=O)[O-])cc2)C(=O)Oc2ccc([N+](=O)[O-])cc2)cc1 (stereo unspecified)
The melting point of the first is higher: 177 to 179 °C for the first, 97 to 98 °C for the second.

First: CSc1ccc(-n2cnc3ccc(-c4nnc(C)o4)cc32)cc1
Second: COc1cc(-n2c(-c3ccc(SC)cc3)nc(SC)c(C#N)c2=O)cc(OC)c1OC
The melting point of the first is higher: 202 to 204 °C for the first, 192 to 195 °C for the second.

First: COC(=O)COc1ccc(C(=O)NNC(=O)c2ccc(C#N)cc2)cc1
Second: COc1ccccc1-n1c(=O)[nH]c2c(C(N)=O)nc(-c3ccc(C#N)cc3)nc21
The melting point of the first is lower: 220 to 222 °C for the first, 335 to 338 °C for the second.

Compared with `FC(F)(F)c1cc(C(F)(F)F)cc(P(=S)(S)c2cc(C(F)(F)F)cc(C(F)(F)F)c2)c1`, `CN1CCN(c2ccc(Br)c3c2C[C@H](NC(=O)c2ccc(C(F)(F)F)cc2)CC3)CC1` is higher in melting point: 72 to 74 °C for the first, 229 to 230 °C for the second.

First: CCCCOc1c(CNC(=O)OC(C)(C)C)n(CC(C)C)c(=O)c2ccc(-c3nc(C)c(C(=O)O)s3)cc12
Second: CCSc1c(CO)nc(C)n1Cc1ccc(-c2ccccc2C(=O)O)cc1
The melting point of the first is lower: 107 to 109 °C for the first, 205 °C for the second.

First: O=C(O)C(Br)c1ccc(Cl)cc1 (stereo unspecified)
Second: S=C=NCc1cc(-c2ccc(Cl)cc2)no1
The melting point of the first is higher: 92 to 93 °C for the first, 74 to 76 °C for the second.

Compared with `CC1(O)CC2(C)C(=O)CCC2C2CCC3=CC(=O)CCC3(C)C21` (stereo unspecified), `CC12CCC3c4ccc(C(=O)O)cc4CCC3C1CCC2C(=O)C=Cc1ccccc1` (stereo unspecified) is higher in melting point: 150 to 151 °C for the first, 177 to 181 °C for the second.

Compared with `CC(C)(Sc1cc(C(C)(C)C)c(O)c(C(C)(C)C)c1)Sc1cc(C(C)(C)C)c(OCCC(O)C(O)CCO)c(C(C)(C)C)c1` (stereo unspecified), `COC(=O)CCc1cc(C)c(OP(Oc2c(C)cc(CCC(=O)OC)cc2C(C)(C)C)Oc2c(C)cc(CCC(=O)OC)cc2C(C)(C)C)c(C(C)(C)C)c1` is higher in melting point: 75 to 77 °C for the first, 113 to 114 °C for the second.

First: CCOC(=O)C1=C(COCc2nnc(C)s2)NC(C)=C(C(=O)OC)C1c1cccc(Cl)c1Cl (stereo unspecified)
Second: COCCOC(=O)C1=C(C)Nc2cc[nH]c(=O)c2C1c1ccccc1[N+](=O)[O-] (stereo unspecified)
The melting point of the first is lower: 140 to 144 °C for the first, 265 °C for the second.

Compared with `CCOC(=O)CC(=O)Sc1cc(Cl)c(Cl)cc1Cl`, `CCC(=O)Oc1cccc2c1C(=O)c1c(OC(=O)CC)cc(-c3nnn[nH]3)cc1C2=O` is higher in melting point: 41 to 43 °C for the first, 176 to 178 °C for the second.

First: CC(=O)C1C(=O)N(C(=O)NC(=O)c2ccccc2)c2ccccc21 (stereo unspecified)
Second: COC(=O)c1ccccc1S(=O)(=O)NC(=O)Nc1ncccn1
The melting point of the first is higher: 198 °C for the first, 188 to 192 °C for the second.

First: C/C(NCC(C)(C)C)=C(\C#N)C(N)=S
Second: CCN1C[C@@H](O)[C@H](N(C)C(=O)c2ccc([N+](=O)[O-])cc2)C1 (relative stereo)
The melting point of the first is higher: 143 to 144 °C for the first, 104 to 108 °C for the second.

First: N#Cc1ccnc(CO)c1
Second: Oc1ccccc1CNc1cncc(Br)c1
The melting point of the first is lower: 92 to 94 °C for the first, 184 °C for the second.

First: O=C(O)Cn1cnc2c(NC3CCCCC3)nc(NCc3ccc(C4CCCCC4)cc3)nc21
Second: CC(=O)N1CCC(CCCC(=O)c2ccc3c(c2)CCNCC3)CC1
The melting point of the first is higher: 172 to 179 °C for the first, 90 to 91 °C for the second.

First: O=C(c1cc2c(cc1F)OC(c1ccccc1Cl)(c1ccccc1Cl)O2)N1CCOCC1
Second: O=C(C1CCN(c2c(Cl)cncc2Cl)CC1)N1CCOCC1
The melting point of the first is lower: 98 °C for the first, 172 to 174 °C for the second.

Compared with `Clc1cn2cc(Br)ccc2n1`, `CC1(C)CCSc2ccc(Br)cc21` is lower in melting point: 155 to 159 °C for the first, 51 °C for the second.

Compared with `O=C1O[C@H](O)[C@@H]2[C@H]1[C@@H]1C=C[C@H]2C1`, `Cc1cccc2[nH]c(=O)c(=O)[nH]c12` is higher in melting point: 133 °C for the first, 325 °C for the second.

Compared with `COc1ccn2nc(-c3ccccc3)c(-c3ccc(=O)n(C(C)C)n3)c2c1Br`, `CN(C)CCCCOc1ccc2c(=O)cc(-c3ccccc3)oc2c1` is lower in melting point: 205 to 206 °C for the first, 95 to 96 °C for the second.

First: Cc1nc(C(F)(F)F)ccc1C(=O)c1c(S(C)=O)noc1C1CC1 (stereo unspecified)
Second: CCS(=O)(=O)c1c(CS(=O)(=O)C2=NOC(C)(C)C2)c(C(F)(F)F)nn1-c1ccccc1
The melting point of the first is lower: 96 to 97 °C for the first, 158 to 160 °C for the second.

Compared with `COc1cc(Cc2nccc3c(OCc4ccccc4)cc(OCc4ccccc4)cc23)cc(OC)c1OC`, `OC(CCc1ccccc1)(c1ccccc1)c1cncn1Cc1ccccc1` (stereo unspecified) is higher in melting point: 158 to 160 °C for the first, 196 to 198 °C for the second.

Going from `CSc1nc(O)cc(=O)n1C` to `COc1ccc2cccc(N3C(=O)CN(CC#N)CC3=O)c2c1`, the melting point rises from 198 °C to 204 °C.

First: O=C(O)Cc1c(C(=O)O)c2cc(Oc3ccc(Cl)cc3)ccc2n1-c1ccc(N2CCCCC2)cc1
Second: O=C(Nc1ccc(C2=CCN(C(=O)Nc3ccc(OCC(O)CO)cc3Cl)CC2)cc1)Nc1ccccc1F (stereo unspecified)
The melting point of the first is higher: 183 to 187 °C for the first, 161 to 165 °C for the second.

Compared with `CCOC(=O)C1(Cc2ccc(OC)c(OC)c2)C(=O)NCC1c1ccc2c(c1)OCO2` (stereo unspecified), `Clc1ccc2c(c1)C(Br)Cn1cccc1S2` (stereo unspecified) is lower in melting point: 167 to 168 °C for the first, 106 to 107 °C for the second.
